Measurements published in US20190381127A1, “COMBINATION THERAPY WITH A6, CHEMOTHERAPEUTIC AGENTS, RADIATION THERAPY, OR A COMBINATION THEREOF FOR THE TREATMENT OF CANCER” (Splash Pharmaceuticals, Inc., priority 2016, published 2019).

What was measured:
[1] = system: choroidal neovascularization; experiment: Laser-induced choroidal neovascularization (CNV); format: in vivo, mouse; details: compared to the non-treated control group
[2] = system: HEY/C2 (DDP resistant) cells; experiment: CCK-8 cytotoxicity of DDP/PTX with or without A6; format: cell-based; details: 100 μM A6; 72 hours; 10% FBS
Procedure: The cells were plated in 96-well plates as described and incubated overnight. […] The CCK-8 assay described herein was performed to access cytotoxicity of DDP/PTX.

[3] = system: endometrial cancer with metastases to lymph nodes and lungs; experiment: Compassionate use, endometrial cancer patient; format: in vivo, human
Procedure: A second compassionate use patient was administered A6. The patient was diagnosed with endometrial cancer with metastases to lymph nodes and lungs. The patient underwent a hysterectomy followed by cisplatin and paclitaxel regimen. The patient started A6 1.5 mg/kg/day and continued on this regimen for 2 years with intermittent radiation therapy to the mediastinum to a total dose of 5,000 cGy. […] A6 increased to 2.0 mg/kg/day.

[4] = system: CD44-nonexpressing A278 cells; experiment: Cell binding to HA coated plates; format: cell-based
From the text: (§1) A6 shares sequence homology with the Link Module of CD44. […] This effect was blocked with the anti-CD44 antibody, IM7. […] Without being bound by any particular A6 can induce conformational changes in CD44, resulting in either a lowered affinity of the epitope for DF1485, or preventing DF1485 from binding CD44. The binding of A6 to CD44 results in a modulation of CD44-mediated intracellular signaling and establishes a functional relationship between A6 and CD44 in CD44 expressing cells.

[5] = system: CD44-negative A2780 cells; experiment: Boyden chamber migration; format: cell-based, human
CD44 = CD44 (Homo sapiens, UniProt P16070); experiment: Cross-linking, immunoprecipitation and immunoblotting of SKOV3 lysates; format: binding; details: SKOV3 cells bound and cross-linked to A6
CD44, sequence (P16070 21-742): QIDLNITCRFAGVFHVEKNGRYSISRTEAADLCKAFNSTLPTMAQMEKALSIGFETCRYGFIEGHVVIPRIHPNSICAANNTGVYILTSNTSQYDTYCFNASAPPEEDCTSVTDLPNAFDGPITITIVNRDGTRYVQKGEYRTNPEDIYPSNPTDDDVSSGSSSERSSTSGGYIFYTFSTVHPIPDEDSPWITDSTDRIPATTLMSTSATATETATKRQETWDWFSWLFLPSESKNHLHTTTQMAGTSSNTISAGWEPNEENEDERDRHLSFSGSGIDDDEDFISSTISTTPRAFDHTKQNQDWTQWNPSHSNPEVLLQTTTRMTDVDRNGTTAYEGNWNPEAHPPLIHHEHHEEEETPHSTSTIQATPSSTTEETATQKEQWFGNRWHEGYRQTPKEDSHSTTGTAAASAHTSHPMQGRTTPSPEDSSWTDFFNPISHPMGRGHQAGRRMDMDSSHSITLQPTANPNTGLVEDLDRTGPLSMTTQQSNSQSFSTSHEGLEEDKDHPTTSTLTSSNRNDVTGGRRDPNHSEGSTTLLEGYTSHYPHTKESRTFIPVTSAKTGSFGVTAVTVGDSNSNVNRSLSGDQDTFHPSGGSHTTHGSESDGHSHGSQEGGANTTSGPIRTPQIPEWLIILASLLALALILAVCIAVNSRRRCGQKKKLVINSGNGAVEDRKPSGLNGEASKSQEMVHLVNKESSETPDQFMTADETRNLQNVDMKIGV
Procedure: (§2) Human ovarian SKOV3 cells were bound and cross-linked to A6. […] To determine if this binding influenced CD44-mediated activity, and to determine if a functional relationship existed between A6 and CD44, intracellular signaling studies were conducted.

[6] = system: FAK phosphorylation in CD44-positive SKOV3 cells; experiment: FAK phosphorylation signaling study; format: cell-based, human
Procedure: as §2

U87MG human glioma cells = experiment: Subcutaneous glioma xenograft; format: in vivo, BALB/c (nu/nu) mice
Procedure: Glioblastoma: In animal models of glioblastoma, U87MG human glioma cells were implanted subcutaneously or intracranially in BALB/c (nu/nu) mice and the animals were divided into different treatment groups. […] In this study the effects of cisplatin were also examined.

IGROV-1 cells = experiment: CCK-8 cytotoxicity, A6 plus DDP; format: cell-based, human; details: A6 1, 10 or 100 μM 1 h, then 1 h A6 plus DDP
Procedure: Drugs: DDP (3.33 mM stock) and A6 (109.8 mM stock); Drug exposure time: 1 hour; Cell line: IGROV-1 and its DDP-resistant subline IGROV-1/CP; Media: RPMI 1640 plus 10% FBS containing 1 mM penicillin/streptomycin; Cytotoxicity Assays: CCK-8 (Cell Counting Kit 8—Dojindo Molecular Technologies).
Tissue culture plates containing 96-well plates were seeded with 4000 cells in 100 μl of media per well. The wells on rows A-D were seeded with IGROV-1 cells, while the wells on rows E-H were seeded with IGROV-1/CP cells. The cells were allowed to attach overnight in a 37° C. in 5% CO2 incubator. Approximately 24 h later medium was removed by aspiration and the cells were exposed to 0, 1, 10 or 100 μM A6 peptide in 100 μl. After 1 h, increasing concentrations of DDP were added to triplicate wells in 100 pa medium. Following a 1 h exposure to the combination of A6 and DDP, the drugs were removed by aspiration. The cells were then allowed to grow for 96 h following which the plates were assayed for relative cell growth with the CCK-8 assay.
CCK-8 assay. Five pi of CCK-8 stain was added to each well and the plate was incubated at 37° C. incubator for 4 h. The plate was read with a microplate reader at a wavelength of 450 nm.
(§3) The assay was performed using triplicate wells for each DDP concentration. […]

[7] = system: CD44-expressing SKOV3 cells; experiment: Cell binding to HA coated plates; format: cell-based, human
From the text: as §1

[8] = Clinical safety profile of A6 (summary); details: human, in vivo
[9] = system: MDA-MB-231 human mammary carcinoma xenografts; experiment: Mammary carcinoma xenograft model; parameters: species or system BALB/c (nu/nu) mice; details: mouse, in vivo
B16F10-DsRed cells = experiment: B16F10-DsRed Cell Lung Metastasis Model; format: in vivo, C57BL/6 mice; details: for tumor burden in the lungs: A6 200 mg/Kg SC QD, day 12
Procedure: B16F10-DsRed cells were harvested from cells culture. 1×10^6 cells/200 μl were inoculated into DPBS/mouse via bilateral tail vein in 48 female C57BL/6 mice (Charles River).
Mice were randomized into six groups: Grp1 no treatment, Grp2 PTX (10 mg/Kg, IP on days 1 and 8), Grp3 DDP (4 mg/Kg, IP, day 1, 4 and 8), Grp4 A6 (200 mg/Kg, SC, QD), Grp5 A6 plus PTX, Grp6 A6 plus DDP. Animals were weighed before dosing and then twice a week.
Dosing: A6 dosing started immediately after cell inoculation and consecutively for 11 days; DDP/PTX dosing started immediately after inoculation and then on days as above. The study was ended on day 12, and the lungs were harvested to determine metastatic burden.

[10] = system: choroidal neovascularization; experiment: Laser-induced choroidal neovascularization (CNV); format: in vivo, rat; details: subcutaneous injections; compared to non-treated controls
[11] = system: ZAP-70pos B-cell lymphocytes isolated from individual patients; experiment: CLL xenograft model; format: in vivo, immune-deficient mice; details: vs vehicle control
[12] = system: choroidal neovascularization; experiment: Laser-induced choroidal neovascularization (CNV); format: in vivo, primate; details: intravitreal administration; relative to control
2008/C13*5.25 cells = experiment: CCK-8 cytotoxicity, A6 plus DDP; format: cell-based, human; details: A6 1, 10 or 100 μM 1 h, then 1 h A6 plus DDP; 10% FBS
Procedure: Conditions: Drugs: DDP (3.33 mM stock) and A6 (109.8 mM stock); Drug exposure time: 1 hour ; Cell line: 2008 and its DDP-resistant subline 2008/C31*5.25; Media: RPMI 1640 plus 10% FBS containing 1 mM penicillin/streptomycin; Cytotoxicity Assays: CCK-8 (Cell Counting Kit 8—Dojindo Molecular Technologies).
Tissue culture plates containing 96-well plates were seeded with 3000 cells in 100 μl of media per well. The wells on rows A-D were seeded with 2008 cells, while the wells on rows E-H were seeded with 2008/C13*5.25 cells. The cells were allowed to attach overnight in a 37° C. in 5% CO2 incubator. Approximately 24 h later medium was removed by aspiration and the cells were exposed to 0, 1, 10 or 100 μM A6 peptide in 100 μl. After 1 h, increasing concentrations of DDP were added to triplicate wells in 100 μl medium. Following a 1 h exposure to the combination of A6 and DDP, the drugs were removed by aspiration. The cells were then allowed to grow for 96 h following which the plates were assayed for relative cell growth with the CCK-8 assay.
CCK-8 assay. Five μl of CCK-8 stain was added to each well and the plate was incubated at 37° C. incubator for 4 h. The plate was read with a microplate reader at a wavelength of 450 nm.
as §3

[13] = system: CD44-positive SKOV3 cells; experiment: Boyden chamber migration; format: cell-based, human; details: compared to untreated control
[14] = system: Mat B-111 syngeneic mammary carcinoma cells; experiment: Syngeneic mammary carcinoma model; parameters: species or system Fisher rats; details: rat, in vivo
Procedure: Mammary: The effects of A6 in mammary tumor and metastasis models were investigated. […] The effect of A6 in Fisher rats inoculated with Mat B-111 syngeneic mammary carcinoma cells was evaluated.

[15] = system: HEY (DDP sensitive) cells; experiment: CCK-8 cytotoxicity of DDP/PTX with or without A6; format: cell-based; details: 100 μM A6; 72 hours; 10% FBS
Procedure: Effect of A6 plus Cisplatin (DDP) or Paclitaxel (PTX) in HEY (DDP sensitive) and HEY/C2 (DDP resistant) cells was tested. The cells were plated in 96-well plates as described and incubated overnight. The cells were treating with various doses of DDP/PTX in the absence or presence of 100 μM A6 in culture medium containing 10% FBS and incubated for 72 hours. The CCK-8 assay described herein was performed to access cytotoxicity of DDP/PTX.

[16] = system: human breast and ovarian cancer cell lines; experiment: Boyden chamber chemotaxis; format: cell-based; details: responsive cell lines; read-out: IC50 for the inhibition of chemotaxis
From the text: A6 had no effect on the migration of CD44-negative A2780 cells. A6 was also shown to interfere with the binding of only one (DF1485) of the four anti-CD44 antibodies tested.

Ac-KPSSPPEE-NH2 [A6, Ac-KPSSPPEE-NH2]
inhibition of new vessel formation [1]: 95%
sensitivity of cells to cisplatin [2]: did not affect sensitivity
sensitivity of cells to paclitaxel [2]: did not affect sensitivity
clinical outcome ([3]; 10+ years of biannual testing): no evidence of disease
disease status ([3]; A6 1.5 mg/kg/day for 2 years with intermittent radiation therapy): Stable disease
CA-125 ([3]; after A6 dose reduced to 0.25-0.5 mg/kg/day, increased from 25): 71 U/ml
CA-125 ([3]; after A6 increased to 2.0 mg/kg/day): 22 U/ml
CA-125, subsequent follow up ([3]; subsequent follow up): below 25 U/ml
CA125 response (ovarian cancer; in vivo): not associated with CA125 response
complete responses (ovarian cancer; in vivo): no complete responses
patients achieving stable disease (ovarian cancer; in vivo): 36%
safety profile (ovarian cancer; in vivo): comparable to that of control (placebo) treatment
median progression free survival (PFS) (ovarian cancer; placebo 49 days): 100 days
binding of cells to HA coated plates [4]: neither A6 nor IM7 had any effect
effect on migration [5]: no effect
direct interaction with CD44 (CD44): binding to CD44
FAK phosphorylation [6]: modulate FAK phosphorylation
adverse events (human, in vivo): no systemic drug-related adverse events
cumulative increase in concentration over time (human, in vivo): no cumulative increase in concentration over time was detected
anti-A6 antibody production (subcutaneous twice daily for 6 days, day 14): no anti-A6 antibody production was detected
time to progression following discontinuation of treatment (U87MG human glioma cells): prolonged the time to progression
modulation of sensitivity to DDP (IGROV-1 cells): failed to modulate the sensitivity
binding of cells to HA coated plates [7]: increase the binding
safety profile [8]: no immunogenicity, no dose-limiting toxicities, no serious side-effects
metastasis [9]: An inhibition of metastasis was noted
tumor burden in the lungs (B16F10-DsRed cells; in the presence or absence of cisplatin): not significantly reduced
tumor burden in the lungs (B16F10-DsRed cells; in the presence or absence of paclitaxel, 200 mg/kg): not significantly reduce
antimetastatic activity of cisplatin or paclitaxel on addition of A6 (B16F10-DsRed cells; mouse, in vivo): did not increase antimetastatic activity
reduction in CNV [10]: 70%
reduction in CLL burden [11]: up to 90%
reduction in CNV [12]: 71%
modulation of sensitivity to DDP (2008/C13*5.25 cells): failed to modulate the sensitivity
inhibition of migration [13]: > 85%
lymph node metastasis [14]: markedly suppressed
sensitivity of cells to cisplatin [15]: did not affect sensitivity
sensitivity of cells to paclitaxel [15]: did not affect sensitivity
IC50 [16]: 0.01 to 0.1 µM
